The supplement of paper PMC10307832

Key:
Assay in all cases: relative viability (nuclei count vs DMSO), 5 days (fraction); higher = more cells survive
NCI-H1437 = test system: NCI-H1437
Method in brief: (§1)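 Five library-drug doses in √10 steps were combined with a fixed anchor-drug dose, or a single drug was given alone, by pin tool to lung cancer cell lines in 1536-well plates the day after seeding. Nuclei were stained and counted after 5 days. Relative viability is the nuclei count in treated wells over that in vehicle wells, taken as the median of duplicate plates.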

NCI-H1792 = test system: NCI-H1792
Method in brief: as §1

NCI-H650 = test system: NCI-H650
Method in brief: as §1

SK-MES-1 = test system: SK-MES-1
Method in brief: as §1

HCC-827 = test system: HCC-827
Method in brief: as §1

SW 900 = test system: SW 900
Method in brief: as §1

NCI-H1666 = test system: NCI-H1666
Method in brief: as §1

A-427 = test system: A-427
Method in brief: as §1

NCI-H1650 = test system: NCI-H1650
Method in brief: as §1

HCC-15 = test system: HCC-15
Method in brief: as §1

HCC-44 = test system: HCC-44
Method in brief: as §1

COR-L23 = test system: COR-L23
Method in brief: as §1

NCI-H1975 = test system: NCI-H1975
Method in brief: as §1

NCI-H2342 = test system: NCI-H2342
Method in brief: as §1

NCI-H358 = test system: NCI-H358
Method in brief: as §1

NCI-H441 = test system: NCI-H441
Method in brief: as §1

HARA = test system: HARA
Method in brief: as §1

NCI-H838 = test system: NCI-H838
Method in brief: as §1

201T = test system: 201T
Method in brief: as §1

NCI-H23 = test system: NCI-H23
Method in brief: as §1

BEN = test system: BEN
Method in brief: as §1

EKVX = test system: EKVX
Method in brief: as §1

SMILES: CCN(CC)CCCCNc1ncc2cc(-c3cc(OC)cc(OC)c3)c(NC(=O)NC(C)(C)C)nc2n1 + CC(=O)c1c(C)c2cnc(Nc3ccc(N4CCNCC4)cn3)nc2n(C2CCCC2)c1=O [Palbociclib] (partner 0.5 µM)
- relative viability (NCI-H1437; first compound 0.01 µM): 0.319
- relative viability (NCI-H1437; first compound 0.03162 µM): 0.331
- relative viability (NCI-H1437; first compound 0.1 µM): 0.326
- relative viability (NCI-H1437; first compound 0.3162 µM): 0.303
- relative viability (NCI-H1437; first compound 1 µM): 0.285
- relative viability (NCI-H1792; first compound 0.01 µM): 0.66
- relative viability (NCI-H1792; first compound 0.03162 µM): 0.623
- relative viability (NCI-H1792; first compound 0.1 µM): 0.568
- relative viability (NCI-H1792; first compound 0.3162 µM): 0.562
- relative viability (NCI-H1792; first compound 1 µM): 0.639
- relative viability (NCI-H650; first compound 0.01 µM): 0.282
- relative viability (NCI-H650; first compound 0.03162 µM): 0.369
- relative viability (NCI-H650; first compound 0.1 µM): 0.331
- relative viability (NCI-H650; first compound 0.3162 µM): 0.308
- relative viability (NCI-H650; first compound 1 µM): 0.32
- relative viability (SK-MES-1; first compound 0.01 µM): 0.394
- relative viability (SK-MES-1; first compound 0.03162 µM): 0.345
- relative viability (SK-MES-1; first compound 0.1 µM): 0.32
- relative viability (SK-MES-1; first compound 0.3162 µM): 0.268
- relative viability (SK-MES-1; first compound 1 µM): 0.297
- relative viability (HCC-827; first compound 0.01 µM): 0.49
- relative viability (HCC-827; first compound 0.03162 µM): 0.473
- relative viability (HCC-827; first compound 0.1 µM): 0.507
- relative viability (HCC-827; first compound 0.3162 µM): 0.644
- relative viability (HCC-827; first compound 1 µM): 0.454
- relative viability (SW 900; first compound 0.01 µM): 0.653
- relative viability (SW 900; first compound 0.03162 µM): 0.535
- relative viability (SW 900; first compound 0.1 µM): 0.602
- relative viability (SW 900; first compound 0.3162 µM): 0.517
- relative viability (SW 900; first compound 1 µM): 0.483
- relative viability (NCI-H1666; first compound 0.01 µM): 0.666
- relative viability (NCI-H1666; first compound 0.03162 µM): 0.626
- relative viability (NCI-H1666; first compound 0.1 µM): 0.613
- relative viability (NCI-H1666; first compound 0.3162 µM): 0.649
- relative viability (NCI-H1666; first compound 1 µM): 0.613
- relative viability (A-427; first compound 0.01 µM): 0.58
- relative viability (A-427; first compound 0.03162 µM): 0.475
- relative viability (A-427; first compound 0.1 µM): 0.59
- relative viability (A-427; first compound 0.3162 µM): 0.501
- relative viability (A-427; first compound 1 µM): 0.398
- relative viability (NCI-H1650; first compound 0.01 µM): 0.311
- relative viability (NCI-H1650; first compound 0.03162 µM): 0.338
- relative viability (NCI-H1650; first compound 0.1 µM): 0.354
- relative viability (NCI-H1650; first compound 0.3162 µM): 0.308
- relative viability (NCI-H1650; first compound 1 µM): 0.296
- relative viability (HCC-15; first compound 0.01 µM): 0.82
- relative viability (HCC-15; first compound 0.03162 µM): 0.826
- relative viability (HCC-15; first compound 0.1 µM): 0.826
- relative viability (HCC-15; first compound 0.3162 µM): 0.797
- relative viability (HCC-15; first compound 1 µM): 0.729
- relative viability (HCC-44; first compound 0.01 µM): 1.02
- relative viability (HCC-44; first compound 0.03162 µM): 1.07
- relative viability (HCC-44; first compound 0.1 µM): 0.987
- relative viability (HCC-44; first compound 0.3162 µM): 1.04
- relative viability (HCC-44; first compound 1 µM): 1
- relative viability (COR-L23; first compound 0.01 µM): 0.291
- relative viability (COR-L23; first compound 0.03162 µM): 0.343
- relative viability (COR-L23; first compound 0.1 µM): 0.341
- relative viability (COR-L23; first compound 0.3162 µM): 0.312
- relative viability (COR-L23; first compound 1 µM): 0.248
- relative viability (NCI-H1975; first compound 0.01 µM): 0.608
- relative viability (NCI-H1975; first compound 0.03162 µM): 0.498
- relative viability (NCI-H1975; first compound 0.1 µM): 0.589
- relative viability (NCI-H1975; first compound 0.3162 µM): 0.697
- relative viability (NCI-H1975; first compound 1 µM): 0.475
- relative viability (NCI-H2342; first compound 0.01 µM): 0.514
- relative viability (NCI-H2342; first compound 0.03162 µM): 0.514
- relative viability (NCI-H2342; first compound 0.1 µM): 0.528
- relative viability (NCI-H2342; first compound 0.3162 µM): 0.548
- relative viability (NCI-H2342; first compound 1 µM): 0.556
- relative viability (NCI-H358; first compound 0.01 µM): 0.146
- relative viability (NCI-H358; first compound 0.03162 µM): 0.123
- relative viability (NCI-H358; first compound 0.1 µM): 0.159
- relative viability (NCI-H358; first compound 0.3162 µM): 0.139
- relative viability (NCI-H358; first compound 1 µM): 0.136
- relative viability (NCI-H441; first compound 0.01 µM): 0.193
- relative viability (NCI-H441; first compound 0.03162 µM): 0.204
- relative viability (NCI-H441; first compound 0.1 µM): 0.198
- relative viability (NCI-H441; first compound 0.3162 µM): 0.261
- relative viability (NCI-H441; first compound 1 µM): 0.193
- relative viability (HARA; first compound 0.01 µM): 0.228
- relative viability (HARA; first compound 0.03162 µM): 0.243
- relative viability (HARA; first compound 0.1 µM): 0.306
- relative viability (HARA; first compound 0.3162 µM): 0.223
- relative viability (HARA; first compound 1 µM): 0.269
- relative viability (NCI-H838; first compound 0.01 µM): 0.197
- relative viability (NCI-H838; first compound 0.03162 µM): 0.223
- relative viability (NCI-H838; first compound 0.1 µM): 0.204
- relative viability (NCI-H838; first compound 0.3162 µM): 0.213
- relative viability (NCI-H838; first compound 1 µM): 0.182
- relative viability (201T; first compound 0.01 µM): 0.395
- relative viability (201T; first compound 0.03162 µM): 0.387
- relative viability (201T; first compound 0.1 µM): 0.406
- relative viability (201T; first compound 0.3162 µM): 0.389
- relative viability (201T; first compound 1 µM): 0.372
- relative viability (NCI-H23; first compound 0.01 µM): 0.534
- relative viability (NCI-H23; first compound 0.03162 µM): 0.451
- relative viability (NCI-H23; first compound 0.1 µM): 0.598
- relative viability (NCI-H23; first compound 0.3162 µM): 0.547
- relative viability (NCI-H23; first compound 1 µM): 0.466
- relative viability (BEN; first compound 0.01 µM): 0.489
- relative viability (BEN; first compound 0.03162 µM): 0.417
- relative viability (BEN; first compound 0.1 µM): 0.493
- relative viability (BEN; first compound 0.3162 µM): 0.524
- relative viability (BEN; first compound 1 µM): 0.475
- relative viability (EKVX; first compound 0.03162 µM): 0.406
- relative viability (EKVX; first compound 0.1 µM): 0.31
- relative viability (EKVX; first compound 0.3162 µM): 0.817
- relative viability (EKVX; first compound 1 µM): 0.413
